Test results taken from patent publication US20260069529A1 (BLIS TECHNOLOGIES LIMITED, priority 2022, published 2026).

Tests used:
[1] = tested on: Micrococcus luteus Q24; assay: Inhibition by potential prebiotics, spot on lawned CABK12 agar (prebiotic MIC); assay type: cell-based; conditions: 24 hours 37° C. 5% CO2; for Suitable to be used in Q24 containing product?: aqueous substances 100% to 0.3%, oils 100% only
Method: CABK12 agar plates were split into segments of 6 and […] suspension of Micrococcus luteus […] raw ingredient. Each of the aqueous potential prebiotic substances to be screened were serially diluted in a range of concentrations from 100% to 0.3% using sterile distilled water. Oil based substances were tested at 100% only. 20 μL of each concentration, of each substance were pipetted into a spot onto one segment of the […]12 agar plate and was incubated for 24 hours at 37° C. 5% CO2 in air.

[2] = tested on: IL-6; assay: EpiDerm safety and efficacy experiment, cytokine quantification IL-6; assay type: cell-based, human
Method: (§1) The remaining 6 tissues, which were destined for histology or else to receive 5% SDS, were grouped together on the sixth cell culture plate. […] Vitamin C (50 μg/mL) was instead delivered in the culture medium. On day 4 conditioned media samples were collected and stored frozen at −80° C. for cytokine measurement. 33 of the tissues were then exposed for 30 μL of 0.5% or 5% SDS in PBS, or to PBS as negative control. […] The remaining 3 tissues (destined for histology) were simply fed fresh medium and given the appropriate main treatment. […] All tissues were gently rinsed with PBS and the 3 histology tissues were fixed in neutral buffered formalin. The viabilities of the other 33 tissues were assessed using the MTT viability assay.
(§2) For quantification of IL-1β, IFN-α2, IFN-γ, TNF-α, MCP-1 (CCL2), IL-6, IL-8 (CXCL8), IL-10, IL-12p70, IL-17A, IL-18, IL-23, and IL-33, bead-based multiplex LEGENDplex™ analysis (LEGENDplex™ Human Inflammation Panel 1 (13-plex); BioLegend, San Diego, CA, USA) was used according to the manufacturer's instructions. The relevance of each of the measured cytokines for which activity was observed is described in Table 6. Reactions were performed in duplicate. Analysis was performed with the Cytek™ Aurora flow cytometer (Cytek Biosciences Inc., Fremont, CA, USA). Data were analysed via Legendplex V8.0 software (BioLegend) and specified as pg/mL.

[3] = tested on: IL-8 (CXCL8); assay: EpiDerm safety and efficacy experiment, cytokine quantification IL-8; assay type: cell-based, human; conditions: daily treatment 4 days; Q24 1×10^8 CFU/ml, vitamin C 50 μg/mL
Method: as §1, §2

[4] = tested on: IL-18; assay: EpiDerm safety and efficacy experiment, cytokine quantification IL-18; assay type: cell-based, human; conditions: daily treatment 4 days; Q24 1×10^8 CFU/ml, vitamin C 50 μg/mL
Method: as §1, §2

[5] = tested on: Micrococcus luteus Q24; assay: Effect of prebiotics on the growth of Micrococcus luteus Q24 in M17 broth; assay type: cell-based; conditions: at 24 hours
Method: A batch of M17 broth (Difco #218561) was made, excluding the lactose solution, by following the manufacturer's instructions. 50 ml of broth was dispensed into sterile 100 ml Schott bottles and 2.5 g (5% w/v) of each potential prebiotic substance was added and mixed well using a magnetic stirrer and stir plate. The mixtures were autoclaved at 110° C. for 10 minutes and allowed to cool.
The suspensions of the prebiotic candidates were prewarmed to 40° C. in order to allow for increased homogenisation of any oil-based components prior to dispensing into the wells. 2 ml of each suspension and an M17 only (control) were pipetted into a sterile 24 well tissue culture plate. […] 100 μl of the suspension was pipetted into each well. Once the suspension was added each well was mixed by aspirating and dispensing the solution 5 times with a 1 ml pipette.
Each sample was enumerated at time points 0, 3, 6, 15, 26 and 34 hours using the following method. […] The number of colonies in each spot were then counted using an electronic colony counter and average to give the final result.
The same method was used as described above except the time points tested were 0, 6, 18 and 24 hours. Olive squalene was selected as one of the preferred prebiotics with 3 others that were analysed in combination with olive squalene and compared to the results of the prebiotic candidates alone (FIG. 17).

Row | Molecule | Suitable to be used in Q24 containing product? [1] | other results
1 | O=C(O)c1ccccc1O [Salicylic acid (SA), Salicylic acid] | No | Inhibitory concentration against Micrococcus luteus Q24 [1]: > 5%
2 | Cc1c(C)c2c(c(C)c1O)CC[C@@](C)(CCC[C@H](C)CCC[C@H](C)CCCC(C)C)O2 [Vitamin E, D Alpha Tocopherol 1000 IU, D Alpha Tocopherol] | Yes | –
3 | O=C1O[C@H]([C@@H](O)CO)C(O)=C1O [vitamin C, Ascorbic acid] | Yes | IL-6 levels day 4 vs day 0 ([2]; daily treatment 4 days, Q24 1×10^8 CFU/ml, vitamin C 50 μg/mL): slight but significant increase on day 4; IL-6 released in response to 0.5% SDS ([2]; pre-treatment 4 days, day 5 vs day 4): slight increase on day 5; IL-8 levels day 4 vs day 0 [3]: unchanged; IL-18 levels day 4 vs day 0 [4]: trend for lower values on day 4
4 | NC(=O)NC1NC(=O)NC1=O (centres unmarked) [Allantoin] | Yes | –
5 | CC1=C(/C=C/C(C)=C/C=C/C(C)=C/CO)C(C)(C)CCC1 [Retinol (Vitamin A), Retinol] | Yes | –
6 | NC(=O)c1cccnc1 [Niacinamide] | Yes | –
7 | OC[C@@H](O)[C@H](O)[C@@H](O)CO [Xylitol] | Yes | Effect on live Micrococcus luteus Q24 cell count [5]: detrimental
8 | CC(C)=CCC/C(C)=C/CC/C(C)=C/CC/C=C(\C)CC/C=C(\C)CCC=C(C)C [Olive Squalene] | Yes | –
9 | CC(O)C(=O)O (centres unmarked) [Lactic acid (LA), Lactic acid] | No | Inhibitory concentration against Micrococcus luteus Q24 [1]: > 2.5%
10 | Hyaluronic acid | Yes | –
